Test results from patent US9085555B2, “Complement pathway modulators and uses thereof” (priority 2011, dated 2015).

The molecules below were run against Factor D (Homo sapiens (Human), UniProt P00746) (assay: biochemical). Conditions: read-out: IC50.
Chain of Factor D (P00746 26-253): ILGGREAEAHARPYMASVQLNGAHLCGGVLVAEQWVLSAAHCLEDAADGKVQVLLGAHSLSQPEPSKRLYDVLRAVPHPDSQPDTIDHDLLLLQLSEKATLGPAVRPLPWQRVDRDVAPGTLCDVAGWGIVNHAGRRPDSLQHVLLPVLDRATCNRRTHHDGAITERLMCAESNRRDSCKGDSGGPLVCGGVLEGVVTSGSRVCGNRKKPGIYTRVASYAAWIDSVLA
Format: biochemical
With `COC[C@@H](NC(=O)[C@@H]1C[C@H]2C[C@H]2N1C(=O)Cn1cc(C(C)=O)c2cccnc21)c1cccc(Cl)c1F` [Example 533, (1R,3S,5R)-2-[2-(3-Acetyl-pyrrolo[2,3-b]pyridin-1-yl)-acetyl]-2-aza-bicyclo[3.1.0] hexane-3-carboxylic acid [(S)-1-(3-chloro-2-fluoro-phenyl)-2-methoxy-ethyl]-amide] the IC50 was 34 nM. `COC[C@@H](NC(=O)[C@@H]1C[C@H]2C[C@H]2N1C(=O)Cn1cc(C(C)=O)c2ccncc21)c1cccc(Cl)c1F` [Example 535, (1R,3S,5R)-2-[2-(3-Acetyl-pyrrolo[2,3-c]pyridin-1-yl)-acetyl]-2-aza-bicyclo[3.1.0] hexane-3-carboxylic acid [(S)-1-(3-chloro-2-fluoro-phenyl)-2-methoxy-ethyl]-amide] was tested, and the IC50 was 62 nM. `CC(=O)c1cn(CC(=O)N2[C@@H]3C[C@@H]3C[C@H]2C(=O)NCc2cccc(Cl)c2F)c2cc(OCc3ccccc3)ccc12` [Example 536, (1R,3S,5R)-2-[2-(3-Acetyl-6-benzyloxy-indol-1-yl)-acetyl]-2-aza-bicyclo[3.1.0]hexane-3-carboxylic acid 3-chloro-2-fluoro-benzylamide] gave an IC50 of 121 nM. With `CC(=O)c1cn(CC(=O)N2C[C@H]3C[C@H]3[C@H]2C(=O)NCc2cccc(Cl)c2F)c2ccncc12` [Example 537, (1R,2S,5S)-3-[2-(3-Acetyl-pyrrolo[3,2-c]pyridin-1-yl)-acetyl]-3-aza-bicyclo[3.1.0] hexane-2-carboxylic acid 3-chloro-2-fluoro-benzylamide] the IC50 was 609 nM. With `CC(=O)c1cn(CC(=O)N2C[C@H]3C[C@H]3[C@H]2C(=O)NCc2cccc(Cl)c2F)c2ncccc12` [Example 538, (1R,2S,5S)-3-[2-(3-Acetyl-pyrrolo[2,3-b]pyridin-1-yl)-acetyl]-3-aza-bicyclo[3.1.0] hexane-2-carboxylic acid 3-chloro-2-fluoro-benzylamide] the IC50 was 911 nM. For `CC(=O)c1cn(CC(=O)N2C[C@H](F)C[C@H]2C(=O)NCc2cccc(Cl)c2F)c2ccc(OC(F)(F)F)cc12` [Example 539, (2S,4R)-1-[2-(3-Acetyl-5-trifluoromethoxy-indol-1-yl)-acetyl]-4-fluoro-pyrrolidine-2-carboxylic acid 3-chloro-2-fluoro-benzylamide], the IC50 was 31 nM. Molecule `COC(=O)c1ccc2c(c1)c(C(C)=O)cn2CC(=O)N1[C@@H]2C[C@@H]2C[C@H]1C(=O)NCc1cccc(Cl)c1F` [Example 540, 3-Acetyl-1-{2-[(1R,3S,5R)-3-(3-chloro-2-fluoro-benzylcarbamoyl)-2-aza-bicyclo[3.1.0]hex-2-yl]-2-oxo-ethyl}-1H-indole-5-carboxylic acid methyl ester] has an IC50 of 236 nM. In the case of `COC(=O)c1cccc2c(C(C)=O)cn(CC(=O)N3[C@@H]4C[C@@H]4C[C@H]3C(=O)NCc3cccc(Cl)c3F)c12` [Example 541, 3-Acetyl-1-{2-[(1R,3S,5R)-3-(3-chloro-2-fluorobenzylcarbamoyl)-2-aza-bicyclo[3.1.0]hex-2-yl]-2-oxo-ethyl}-1H-indole-7-carboxylic acid methyl ester], the IC50 is reported as 91 nM. Molecule `COC(=O)c1ccc2c(C(C)=O)cn(CC(=O)N3C[C@H](F)C[C@H]3C(=O)NCc3cccc(Cl)c3F)c2c1` [Example 542, 3-Acetyl-1-{2-[(2S,4R)-2-(3-chloro-2-fluoro-benzylcarbamoyl)-4-fluoro-pyrrolidin-1-yl]-2-oxo-ethyl}-1H-indole-6-carboxylic acid methyl ester] has an IC50 of 19 nM. `C[C@@]1(F)C[C@@H](C(=O)NCc2cccc(Cl)c2F)N(C(=O)Cn2cc(C(=O)CO)c3ccccc32)C1` [Example 543, (2S,4R)-4-Fluoro-1-{2-[3-(2-hydroxy-acetyl)-indol-1-yl]-acetyl}-4-methyl-pyrrolidine-2-carboxylic acid 3-chloro-2-fluoro-benzylamide] gave an IC50 of 245 nM.
